Assay results from ChEMBL document CHEMBL3431459, “Roche carnitine palmitoyltransferase modulator screening data (supplementary data associated with the publication CHEMBL2216752)”.
In brackets after ≈: the same amount, converted by molar mass.

Experiments:
[1] = target: T1, Carnitine O-palmitoyltransferase 1, muscle isoform (Homo sapiens, UniProt Q92523); test: SUPPLEMENTARY: Inhibition of Carnitine palmitoyltransferase 1, muscle isoform; set-up: species or system Muscle tissue
T1 sequence (Q92523 whole entry): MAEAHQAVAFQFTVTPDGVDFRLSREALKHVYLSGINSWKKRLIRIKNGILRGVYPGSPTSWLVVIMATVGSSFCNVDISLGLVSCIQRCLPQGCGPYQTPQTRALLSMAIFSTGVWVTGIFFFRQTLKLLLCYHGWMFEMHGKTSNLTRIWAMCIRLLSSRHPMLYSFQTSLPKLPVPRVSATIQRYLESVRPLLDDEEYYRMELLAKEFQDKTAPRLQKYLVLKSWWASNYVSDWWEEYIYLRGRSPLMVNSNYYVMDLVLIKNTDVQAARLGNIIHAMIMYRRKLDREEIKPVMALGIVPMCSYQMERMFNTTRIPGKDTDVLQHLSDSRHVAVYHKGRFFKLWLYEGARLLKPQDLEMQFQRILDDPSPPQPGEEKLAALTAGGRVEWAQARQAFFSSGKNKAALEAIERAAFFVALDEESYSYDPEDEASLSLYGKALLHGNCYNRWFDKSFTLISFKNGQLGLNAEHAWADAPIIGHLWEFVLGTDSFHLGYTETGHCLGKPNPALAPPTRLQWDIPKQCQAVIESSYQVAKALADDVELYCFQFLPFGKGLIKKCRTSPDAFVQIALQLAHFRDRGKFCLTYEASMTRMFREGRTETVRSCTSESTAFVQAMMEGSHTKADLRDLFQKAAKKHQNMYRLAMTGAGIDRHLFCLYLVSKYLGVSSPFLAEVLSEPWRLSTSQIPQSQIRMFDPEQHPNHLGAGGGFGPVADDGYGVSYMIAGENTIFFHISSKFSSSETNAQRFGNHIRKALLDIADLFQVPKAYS

[2] = SUPPLEMENTARY: Lyophilisation Solubility Assay (LYSA); type: physicochemical; conditions: read-out: Kinetic_solubility
[3] = SUPPLEMENTARY: Lipophilicity (log D) Determination by high-throughput shake-flask; type: physicochemical; conditions: octanol/water
[4] = SUPPLEMENTARY: PAMPA permeability assay; type: physicochemical; conditions: read-out: Permeability
[5] = target: T2, Carnitine O-palmitoyltransferase 1, liver isoform (Homo sapiens, UniProt P50416); test: (§1) SUPPLEMENTARY: Inhibition of Carnitine palmitoyltransferase 1, liver isoform
T2 sequence (P50416 whole entry): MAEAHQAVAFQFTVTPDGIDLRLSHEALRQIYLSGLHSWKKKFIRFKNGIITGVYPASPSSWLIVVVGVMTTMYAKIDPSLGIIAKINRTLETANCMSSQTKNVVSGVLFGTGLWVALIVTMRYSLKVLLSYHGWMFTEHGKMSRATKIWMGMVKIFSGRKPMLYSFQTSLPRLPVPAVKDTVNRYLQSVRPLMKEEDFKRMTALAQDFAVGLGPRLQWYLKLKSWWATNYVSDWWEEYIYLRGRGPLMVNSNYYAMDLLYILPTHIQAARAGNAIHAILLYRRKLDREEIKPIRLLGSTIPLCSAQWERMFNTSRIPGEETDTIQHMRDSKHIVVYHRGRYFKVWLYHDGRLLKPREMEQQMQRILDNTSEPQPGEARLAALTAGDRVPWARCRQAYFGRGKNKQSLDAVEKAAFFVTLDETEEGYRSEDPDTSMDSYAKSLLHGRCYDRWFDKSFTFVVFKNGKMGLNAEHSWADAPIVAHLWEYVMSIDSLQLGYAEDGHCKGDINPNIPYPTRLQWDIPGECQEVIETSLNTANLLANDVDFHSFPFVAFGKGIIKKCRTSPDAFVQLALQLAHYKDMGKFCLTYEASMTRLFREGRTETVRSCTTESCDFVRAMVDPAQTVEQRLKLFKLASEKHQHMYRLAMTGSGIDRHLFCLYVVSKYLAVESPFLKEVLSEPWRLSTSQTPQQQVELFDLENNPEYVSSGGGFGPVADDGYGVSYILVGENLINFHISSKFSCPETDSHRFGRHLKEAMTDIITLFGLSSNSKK

[6] = target: T3, Carnitine O-palmitoyltransferase 1, liver isoform (Rattus norvegicus, UniProt P32198); test: as §1
T3 sequence (P32198 whole entry): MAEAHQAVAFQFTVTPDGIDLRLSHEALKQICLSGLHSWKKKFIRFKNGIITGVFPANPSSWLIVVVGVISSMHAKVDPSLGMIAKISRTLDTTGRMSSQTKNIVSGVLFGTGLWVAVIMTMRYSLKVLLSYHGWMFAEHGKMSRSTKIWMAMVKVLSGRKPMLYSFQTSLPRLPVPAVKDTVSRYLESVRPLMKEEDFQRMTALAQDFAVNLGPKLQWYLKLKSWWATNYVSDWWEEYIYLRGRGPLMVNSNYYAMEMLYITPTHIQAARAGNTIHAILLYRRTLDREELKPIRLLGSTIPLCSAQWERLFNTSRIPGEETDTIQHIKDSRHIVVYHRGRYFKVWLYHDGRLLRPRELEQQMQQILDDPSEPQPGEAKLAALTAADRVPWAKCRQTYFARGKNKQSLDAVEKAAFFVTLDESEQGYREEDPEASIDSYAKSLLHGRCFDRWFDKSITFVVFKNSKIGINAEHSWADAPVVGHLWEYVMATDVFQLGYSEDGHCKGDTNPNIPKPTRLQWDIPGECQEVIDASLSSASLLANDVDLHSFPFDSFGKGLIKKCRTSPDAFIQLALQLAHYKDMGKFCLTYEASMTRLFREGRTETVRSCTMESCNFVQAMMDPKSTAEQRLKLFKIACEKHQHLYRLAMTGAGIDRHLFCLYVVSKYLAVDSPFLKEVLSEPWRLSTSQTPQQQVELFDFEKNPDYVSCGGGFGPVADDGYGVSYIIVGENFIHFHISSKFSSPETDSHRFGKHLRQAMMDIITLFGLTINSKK

[7] = target: T4, Carnitine O-palmitoyltransferase 2, mitochondrial (Rattus norvegicus, UniProt P18886); test: (§2) SUPPLEMENTARY: Inhibition of Carnitine palmitoyltransferase 2
T4 sequence (P18886 whole entry): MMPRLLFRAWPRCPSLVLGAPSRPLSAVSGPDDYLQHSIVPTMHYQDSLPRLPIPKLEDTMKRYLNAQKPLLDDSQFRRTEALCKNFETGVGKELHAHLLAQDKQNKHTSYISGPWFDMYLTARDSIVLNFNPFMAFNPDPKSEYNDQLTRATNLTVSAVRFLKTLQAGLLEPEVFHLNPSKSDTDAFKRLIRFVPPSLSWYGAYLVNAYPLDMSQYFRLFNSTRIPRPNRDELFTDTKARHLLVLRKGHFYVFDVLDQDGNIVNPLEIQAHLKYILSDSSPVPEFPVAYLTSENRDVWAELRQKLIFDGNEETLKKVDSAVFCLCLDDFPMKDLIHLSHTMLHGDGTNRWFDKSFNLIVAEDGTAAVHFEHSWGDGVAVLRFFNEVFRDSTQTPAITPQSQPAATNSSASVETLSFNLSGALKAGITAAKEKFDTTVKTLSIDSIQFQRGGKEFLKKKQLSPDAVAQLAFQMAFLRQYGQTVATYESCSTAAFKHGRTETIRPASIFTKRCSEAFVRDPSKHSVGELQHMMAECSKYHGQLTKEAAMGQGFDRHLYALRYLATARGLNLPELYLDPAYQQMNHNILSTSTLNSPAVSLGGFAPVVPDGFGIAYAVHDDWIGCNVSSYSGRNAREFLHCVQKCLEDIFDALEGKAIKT

[8] = target: T5, Carnitine O-palmitoyltransferase 2, mitochondrial (Homo sapiens, UniProt P23786); test: as §2
T5 sequence (P23786 whole entry): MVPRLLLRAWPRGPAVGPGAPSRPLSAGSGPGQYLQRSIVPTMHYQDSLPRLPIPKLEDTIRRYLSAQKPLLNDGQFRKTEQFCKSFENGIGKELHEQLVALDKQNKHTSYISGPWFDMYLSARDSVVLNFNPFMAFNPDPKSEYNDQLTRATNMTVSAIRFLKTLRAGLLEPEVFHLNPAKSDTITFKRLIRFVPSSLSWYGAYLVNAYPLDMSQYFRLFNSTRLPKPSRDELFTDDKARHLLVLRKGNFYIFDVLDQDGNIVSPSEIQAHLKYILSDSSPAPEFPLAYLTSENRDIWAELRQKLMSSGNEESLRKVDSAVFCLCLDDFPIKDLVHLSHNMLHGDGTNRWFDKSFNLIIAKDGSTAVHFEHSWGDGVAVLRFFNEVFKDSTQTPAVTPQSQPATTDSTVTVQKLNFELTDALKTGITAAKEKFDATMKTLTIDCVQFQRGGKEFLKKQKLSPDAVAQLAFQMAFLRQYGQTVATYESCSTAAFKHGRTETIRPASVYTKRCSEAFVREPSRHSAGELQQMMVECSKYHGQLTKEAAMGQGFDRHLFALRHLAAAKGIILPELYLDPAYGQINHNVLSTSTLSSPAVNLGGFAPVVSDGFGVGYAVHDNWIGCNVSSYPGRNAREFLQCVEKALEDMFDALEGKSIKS

SMILES: COc1ccc(Cl)cc1S(=O)(=O)N1CCS(=O)(=O)c2ccc(C(=O)Nc3ccc(C(=O)O)cc3)cc21
- IC50 [1]: > 100000 nM
- solubility kinetic [2]: 3 µg/mL (≈ 5.44 µM)
- logD [3]: 2.68
- Papp [4]: 1.9 ×10⁻⁶ cm/s
- IC50 [5]: 30 nM
- IC50 [6]: 12.6 nM
- IC50 [7]: > 100 µM
- IC50 [8]: > 100 µM

SMILES: COc1ccc(Cl)cc1S(=O)(=O)N1CCOc2ccc(C(=O)Nc3ccccc3)cc21
- IC50 [1]: > 100000 nM
- solubility kinetic [2]: < 1 µg/mL
- logD [3]: > 3
- Papp [4]: 1.26 ×10⁻⁶ cm/s
- IC50 [5]: 40.8 nM
- IC50 [6]: 84.5 nM
- IC50 [7]: > 100 µM
- IC50 [8]: > 100 µM

SMILES: COc1ccc(Cl)cc1CN1C(=O)OC(C)(C)c2ccc(C(=O)Nc3ccc(C(=O)O)cc3)cc21
- IC50 [1]: 6240 nM
- solubility kinetic [2]: 3 µg/mL (≈ 6.06 µM)
- logD [3]: 2.38
- Papp [4]: 1.81 ×10⁻⁶ cm/s
- IC50 [5]: 88.5 nM
- IC50 [6]: 96.8 nM
- IC50 [7]: 28.1 µM
- IC50 [8]: 10.8 µM

SMILES: COc1ccc(Cl)cc1CN1C(=O)OC(C)(C)c2ccc(C(=O)Nc3nc(CC(=O)O)cs3)cc21
- IC50 [1]: 1010 nM
- solubility kinetic [2]: 150 µg/mL (≈ 291 µM)
- logD [3]: 1.17
- Papp [4]: 1.93 ×10⁻⁶ cm/s
- IC50 [5]: 58.7 nM
- IC50 [6]: 59.7 nM
- IC50 [7]: > 100 µM
- IC50 [8]: > 100 µM

SMILES: CC(=O)Nc1cccc(-n2nnc([C@H]3CCCCN3C(=O)COc3ccccc3)n2)c1
- IC50 [1]: > 100000 nM
- solubility kinetic [2]: 26 µg/mL (≈ 61.8 µM)
- logD [3]: 3
- Papp [4]: 3.5 ×10⁻⁶ cm/s
- IC50 [5]: 111 nM
- IC50 [6]: 71.4 nM
- IC50 [7]: > 100 µM
- IC50 [8]: 8.06 µM

SMILES: CC(=O)NCc1cccc(-c2nc([C@H]3CCCCN3C(=O)COc3ccccc3)no2)c1
- IC50 [1]: > 100000 nM
- solubility kinetic [2]: 127 µg/mL (≈ 292 µM)
- logD [3]: 2.64
- Papp [4]: 2.98 ×10⁻⁶ cm/s
- IC50 [5]: 99.3 nM
- IC50 [6]: 308 nM
- IC50 [7]: > 100 µM
- IC50 [8]: 29.1 µM

SMILES: CS(=O)(=O)NCc1cccc(-c2nc([C@H]3CCCCN3C(=O)COc3ccccc3)no2)c1
- IC50 [1]: > 100000 nM
- solubility kinetic [2]: 94 µg/mL (≈ 200 µM)
- logD [3]: 2.44
- Papp [4]: 1.77 ×10⁻⁶ cm/s
- IC50 [5]: 65.4 nM
- IC50 [6]: 160 nM
- IC50 [7]: > 100 µM
- IC50 [8]: 22.8 µM

SMILES: COc1ccc(Cl)cc1S(=O)(=O)N1CCOc2c(F)cc(C(=O)Nc3ccc(CC(=O)O)cc3)cc21
- IC50 [1]: 750 nM
- solubility kinetic [2]: 565 µg/mL (≈ 1060 µM)
- logD [3]: 0.47
- Papp [4]: 2.79 ×10⁻⁶ cm/s
- IC50 [5]: 150 nM
- IC50 [6]: 84.7 nM
- IC50 [7]: > 100 µM
- IC50 [8]: > 100 µM

SMILES: COc1ccc(Cl)cc1S(=O)(=O)N1CCOc2c(F)cc(C(=O)Nc3nc(CC(=O)O)cs3)cc21
- IC50 [1]: 741 nM
- solubility kinetic [2]: 10 µg/mL (≈ 18.5 µM)
- logD [3]: 0.28
- Papp [4]: 2.43 ×10⁻⁶ cm/s
- IC50 [5]: 23.9 nM
- IC50 [6]: 33.8 nM
- IC50 [7]: > 100 µM
- IC50 [8]: > 100 µM

SMILES: COc1ccc(Cl)cc1S(=O)(=O)N1CCSc2ccc(C(=O)Nc3ccc(CC(=O)O)cc3)cc21
- IC50 [1]: 792 nM
- solubility kinetic [2]: 232 µg/mL (≈ 435 µM)
- logD [3]: 0.61
- Papp [4]: 5.1 ×10⁻⁶ cm/s
- IC50 [5]: 120 nM
- IC50 [6]: 155 nM
- IC50 [7]: > 100 µM
- IC50 [8]: > 100 µM
